pIC50: −log10 of the molar value. Entries after “also recorded” stand apart in the source; their conditions may differ. Where two headings read alike, the source gives them in different places. Marks after values point to notes of the source that are not given here. Positions of bridges follow the written chain, without caps; N, C: chain ends. Residues, ends and D or L forms follow the SMILES beside them. No end group written: not given here.
Columns and labels:
[1] = tested on: A375 melanoma cell line; settings: 20 μM peptide, 8 h, PI-uptake
Description: (§1) Epidermis was separated. […] The pellet was resuspended in melanocyte growth media (Biomedica). […] All cell cultures were periodically checked for mycoplasma.

[2] = tested on: U87 mg glioblastoma cell line; settings: 20 μM peptide, 8 h, PI-uptake
Description: as §1

[3] = tested on: normal human dermal fibroblasts (NHDF); test: PI-uptake assay, NHDF; format: cell-based; settings: 8 h
Description: as §1

[4] = tested on: non-cancer cells (melanocytes, NHDF); test: PI-uptake assay, non-cancer cells pooled; settings: 20 μM peptide, up to 8 h
Description: The primary human melanoma cell line SBcl2 and the metastatic melanoma WM164 were maintained in RPMI (Sigma) supplemented with 2% FBS, 2% L-glutamine and 1% Pen/Strep. Glioblastoma (U87-mg) purchased from CLS (Cell Line Service Heidelberg, Germany) and Rhabdomyosarcoma cell lines (TE671) purchased from ECAAC (Health Protection Agency Culture Collections Salisbury, UK) are cultured in Dulbecco's Modified Eagle Medium (DMEM) with addition of 2 mM Glutamine, 10% FBS (fetal bovine serum). Melanoma cell line A375 CLS (Cell Line Service Heidelberg, Germany) was cultured in Dulbecco's Modified Eagle Medium (DMEM)(PAA) with addition of 2 mM Glutamine and 10% FBS (fetal bovine serum. Human melanocytes used as healthy control cells: were isolated from the foreskin). The foreskin was cut into small pieces and incubated with 0.3% trypsin (PAA) overnight at 4° C. and for one hour at 37° C. Epidermis was separated. Cells were mechanically removed from the cell layer and centrifuged at 300 g for 3 min. The pellet was resuspended in melanocyte growth media (Biomedica). Melanocytes were further cultured in human melanocytes growth medium (PromoCell GmbH). […]
For detection of PI-uptake by fluorescence spectroscopy experiments were performed according to the following protocol. […]
Cytotoxicity was calculated from the percentage of PI positive cells in media alone (P0) and in the presence of peptide (PX). […]

[5] = tested on: cancer cells (SBcl-2, WM164, TE671); test: PI-uptake assay, cancer cells pooled; format: cell-based; settings: 20 μM peptide; for cytotoxic activity against cancer cells (killing): up to 8 h
Description: as §1

[6] = tested on: melanoma cell line SBcl-2; test: PI-uptake assay, SBcl-2; format: cell-based, human; settings: 8 h; for pIC50: PI-uptake
Description: as §1
Cells were incubated in media containing serum for 8 h in the presence of peptides. Peptide concentrations were varied from 10 to 80 μM.

[7] = tested on: human red blood cells; test: Hemolysis; format: cell-based; settings: for % lysis of 2.5% RBCs: one hour, 37° C.; for hemolysis IC50: human red blood cells
Description: The hemolytic activity towards human red blood cells (RBCs), which were obtained from heparinized human blood, was determined by the release of hemoglobin following one hour incubation at 37° C. in MHNA (Mueller Hinton cation Non Adjusted). Percentage of hemolysis of RBCs was calculated using 1% Triton as 100% lysis and PBS as 0% lysis, peptide concentration was 500 μg/ml.

[8] = tested on: cancer cells (SBcl-2, WM164); settings: read-out: IC50 against cancer cells (MTS), 24 h, FIG. 6C
Description: as §1
(§2) Cell proliferation was measured by using a CellTiter 96 AQ nonradioactive cell proliferation assay (Promega). Cells were plated in 96-well plates and grown until confluence. Peptides were added to a final concentration of 5-100 μM. After incubation for 24 h at 37° C. (5% CO2) MTS [3-(4,5-dimethylthiazol-2yl)-5-(3-carboxymethoxyphenyl)-2-(4-sulfophenyl)-2H-tetrazolium]-phenozine methosulfate solution (20 μl/well) was added and cells were again incubated for 2 h at 37° C. (5% CO2). The MIS compound is bioreduced by cells into a colored formazan product that is soluble in tissue culture medium. The quantity of the formazan product as measured by the amount of 490 nm absorbance is directly proportional to the number of living cells in culture. Data are calculated as a percentage of the control (untreated) samples and represent the average of three wells in one experiment which was repeated three times per cell line.
(§3) To determine long-time toxicity of peptides, a MTS cell proliferation assay was used to elucidate cell viability upon 24 h incubation with variant peptide concentration and human melanoma cell lines SBcl-2 and WM164 and non-differentiated human skin fibroblast cell line NHDF.

[9] = tested on: human skin fibroblast cell line NHDF; test: MTS cell proliferation assay, NHDF; settings: read-out: IC50 Fibroblasts / NHDF (MTS); MTS cell viability assay, 24 h
Description: as §1, §2, §3

[10] = tested on: tumor over non tumor cells; test: Specificity for tumor over non tumor cells (PI uptake studies); format: cell-based, human; settings: for Cancer Specificity, -fold specificity for melanoma over non tumor skin cells: melanoma (SBcl2 or A375) over melanocytes or NHDF-c, 8 hours, PI uptake
Description: as §1

[11] = tested on: melanoma cell line SBcl-2; test: MTS cell proliferation assay, SBcl-2; settings: 24 h; for pIC50: read-out: IC50 SBcl-2 (MTS), MTS cell viability assay
Description: as §1, §2, §3

[12] = tested on: melanoma metastasis WM164; settings: for pIC50: read-out: IC50 WM164 (MTS), 24 h
Description: as §1, §2, §3

[13] = tested on: human red blood cells; settings: 500 μg/ml peptide; from Zweytick et al., J. Biol. Chem. 286 (2011); cited from earlier work
[14] = MTS cell proliferation assay, NHDF; settings: human, NHDF (normal human dermal fibroblasts)
Description: as §1, §2, §3

[15] = tested on: melanoma metastasis WM164; test: PI-uptake assay, WM164; format: cell-based, human; settings: 20 μM peptide
Description: as §1
(§4) Cells were incubated in media containing serum for 8 h in the presence of peptides. Peptide concentrations were varied from 10 to 80 μM. FIG. 3 illustrates that the peptide moiety PEP-322 is only minor active against the melanoma cell line SBcl-2 with less than 5% killing at a peptide concentration of 80 μM, as well as against melanocytes with a moderate two-fold selectivity for WM164 cells at 20 μM peptide concentration (FIG. 3C).

[16] = Tryptophan fluorescence and quenching, healthy mimic; settings: in presence of PC
Description: (§5) Tryptophan fluorescence spectra were obtained at room temperature using an excitation wavelength of 282 nm and a slit width of 5 nm for excitation and emission monochromators. Quenching of Tryptophan was carried out in the presence and absence of phospholipid liposomes (lipid to peptide ratio 25:1) using 0.1, 0.4 and 0.7 M acrylamide. The data were analyzed according to the Stern-Volmer equation: F0/F=1+KSV[Q] where F0 and F represent the fluorescence emission intensities in the absence and presence of the quencher molecule (Q) and KSV is the Stern-Volmer quenching constant, which is a quantitative measure for the accessibility of tryptophan to acrylamide (Tao, T. and Cho, J. Biochemistry 18(1979), 2759-2765).

[17] = tested on: differentiated non-tumorigenic melanocytes; test: PI-uptake assay, melanocytes; format: cell-based, human; settings: 20 μM peptide, 8 h
Description: as §1, §4

[18] = Tryptophan fluorescence and quenching, cancer mimic; settings: in presence of target lipid PS
Description: as §5

[19] = tested on: caspase-3/7 activity of melanoma cell line SBcl-2; test: Spectrofluorimetric analysis of caspase-3/7 activity; format: cell-based, human; settings: SBcl-2, 10-20 μM peptide, 4 hours
Description: Spectrofluorimetric analysis of caspase-3/7 activity 5×10^5 cells/ml were seeded into 96-well plate and grown overnight at 37° C. and 5% CO2. Cells were incubated with different concentrations of peptide for 4 hours. Apo-ONE® caspase-3/7 reagent was added in a 1:1 volume ratio and cells were incubated for 4 hours. Cells were then analyzed by fluorescence spectroscopy (GloMax®-Multi+ Microplate Multimode Reader with Instinc™). Untreated cells were used as negative control. Analysis was performed with Apo-ONE® Homogeneous Caspase-3/7 Assay (see FIG. 7).

CC[C@H](C)[C@H](NC(=O)[C@@H]1CSSC[C@H](NC(=O)[C@H](CCCCN)NC(=O)[C@@H](N)[C@@H](C)O)C(=O)N[C@@H](Cc2ccccc2)C(=O)N[C@@H](CCC(N)=O)C(=O)N[C@@H](Cc2c[nH]c3ccccc23)C(=O)N[C@@H](CCC(N)=O)C(=O)N[C@@H](CCCNC(=N)N)C(=O)N[C@@H](CC(N)=O)C(=O)N[C@@H](CCSC)C(=O)N[C@@H](CCCNC(=N)N)C(=O)N[C@@H](CCCCN)C(=O)N[C@@H](C(C)C)C(=O)N[C@@H](CCCNC(=N)N)C(=O)NCC(=O)N2CCC[C@H]2C(=O)N2CCC[C@H]2C(=O)N[C@@H](C(C)C)C(=O)N[C@@H](CO)C(=O)N1)C(=O)N[C@@H](CCCCN)C(=O)N[C@@H](CCCNC(=N)N)C(=O)N[C@@H](CC(=O)O)C(=O)N[C@@H](CO)C(=O)O [hLFcin (37-61)] (H-TKCFQWQRNMRKVRGPPVSCIKRDS-OH; disulfide 3-20)
cytotoxicity against melanoma cell line A375 [1]: only weak activity | cytotoxicity against glioblastoma cell line U87 mg [2]: only weak activity | toxicity against normal human dermal fibroblasts NHDF-c [3]: no toxicity

FWQRRIRRWRRFWQRRIRRWRR-NH2 [DIM-PEP-318]
non-cancer toxicity (melanocytes, NHDF) [4]: highly active | cytotoxic activity against cancer cells (killing) [5]: up to 90% | pIC50 [6]: > 4.70 | hemolytic activity (in words) ([7]; 500 μg/ml peptide, 2.5% red blood cells): not hemolytic | % lysis of 2.5% RBCs ([7]; 500 μg/ml peptide): 2.87 ± 0.57% | hemolysis IC50 [7]: >500 µg/mL | pIC50 [8]: > 5.00 | pIC50 [9]: 5.00 | pIC50 [3]: > 4.70

PFFWRIRIRRPFFWRIRIRR-NH2 [DIM-PEP-324]
activity and selectivity for cancer cells (in words) [10]: selective for cancer cells | Cancer Specificity, -fold specificity for melanoma over non tumor skin cells ([10]; 20 μM peptide): yes (7fold) (DIM-),

PFWRIRIRR PFWRIRIRR (PFWRIRIRRPFWRIRIRR) [DIM-PEP-322]
activity and selectivity for cancer cells (in words) [10]: selective for cancer cells | Cancer Specificity, -fold specificity for melanoma over non tumor skin cells ([10]; 20 μM peptide): yes (50fold)

PFWRIRIRR RRIRIRWFP (PFWRIRIRRRRIRIRWFP) [R-DIM-PEP-322]
time to highest activity against cancer cells [5]: ≥ 8 h | activity and selectivity for cancer cells (in words) [10]: selective for cancer cells | Cancer Specificity, -fold specificity for melanoma over non tumor skin cells ([10]; 20 μM peptide): (DIM-), 20fold

PFWRIRIRR-NH2 [PEP-322, PFWRIRIRR-NH2]
pIC50 [6]: < 4.10 | cell viability SBcl-2 ([11]; 100 μM peptide, MTS): 40% | pIC50 [11]: 4.05 | cell viability WM164 ([12]; 100 μM peptide, 24 h, MTS): more than 70% | pIC50 [12]: < 4.00 | % lysis of 2.5% RBCs [13]: 2^b % | pIC50 [9]: < 4.00 | viability at 24 h, 100 μM [14]: > 70% | pIC50 [3]: < 4.10

PFWRIRIRRD DRRIRIRWFP (PFWRIRIRRDDRRIRIRWFP) [R-DIM-PEP-323]
activity and selectivity for cancer cells (in words) [10]: selective for cancer cells

PFWRIRIRRPRRIRIRWFP-NH2 [R-DIM-P-PEP-322, PFWRIRIRRPRRIRIRWFP-NH2]
sensitivity of WM164 for the peptide [15]: highly sensitive | time to highest activity against cancer cells [5]: 4 to 8 h | cytotoxic activity against cancer cells (killing) [5]: up to 80% | PI positive SBcl-2 cells ([6]; 20 μM peptide): more than 80% | blue shift of Trp emission wavelength, PC [16]: no blue shift appears | pIC50 [11]: 5.10 | activity and selectivity for cancer cells (in words) [10]: cancer active and specific; also recorded: selective for cancer cells | specificity for cancer cells (PI-uptake ratio SBcl-2 vs. melanocytes) ([10]; 20 μM peptide, 8 h): more than 100 fold | Cancer Specificity, -fold specificity for melanoma over non tumor skin cells ([10]; 20 μM peptide): (R-DIM-), >100fold) | % lysis of 2.5% RBCs ([7]; 500 μg/ml peptide): 0.84 ± 0.63% | hemolysis IC50 [7]: >500 µg/mL | pIC50 [12]: 4.82 | melanocytes killed [17]: less than 1% | pIC50 [9]: 4.10 | blue shift of Trp emission wavelength, PS [18]: blue shift is only detected in presence of the target lipid PS | pIC50 [3]: < 4.10 | increase of green fluorescence (caspase-3/7 activity) [19]: 200 fold

PFWRRRIRIRR RRIRIRRRWFP (PFWRRRIRIRRRRIRIRRRWFP) [R-DIM-PEP-337]
activity and selectivity for cancer cells (in words) [10]: less specific | Cancer Specificity, -fold specificity for melanoma over non tumor skin cells ([10]; 20 μM peptide): (2fold) (R-DIM-)

RWKRINRQWFFWQRNIRKWR-NH2 [R-DIM-PEP-316]
activity and selectivity for cancer cells (in words) [10]: specific; also recorded: selective for cancer cells | Cancer Specificity, -fold specificity for melanoma over non tumor skin cells ([10]; 20 μM peptide): Yes (15fold) (R-DIM-)
